# Measured values reported in ChEMBL document CHEMBL4706552, “Discovery of 4-methyl-N-(4-((4-methylpiperazin- 1-yl)methyl)-3-(trifluoromethyl)phenyl)-3-((6-(pyridin-3-yl)-1H-pyrazolo[3,4-d]pyrimidin-4-yl)-oxy)benzamide as a potent inhibitor of RET and its gatekeeper mutant” (Eur J Med Chem, 2020).
# Key:
# Type in all cases: cell-based
# [1] = molecular target: T1, Coiled-coil domain-containing protein 6/Tyrosine-protein kinase receptor RET (Homo sapiens) (UniProt P07949+Q16204); assay: Inhibition of CCDC6-RET fusion protein (unknown origin) expressed in mouse BaF3 cells assessed as reduction in cell proliferation measured after 48 hrs by MTS assay
# [2] = molecular target: T2, Kinesin-1 heavy chain/ Tyrosine-protein kinase receptor RET (Homo sapiens) (UniProt P07949+P33176); assay: Inhibition of KIF5B-RET fusion protein (unknown origin) expressed in mouse BaF3 cells assessed as reduction in cell proliferation measured after 48 hrs by MTS assay
# [3] = system: BaF3; assay: Inhibition of CCDC6-RET V804M mutant fusion protein (unknown origin) expressed in mouse BaF3 cells assessed as reduction in cell proliferation measured after 48 hrs by MTS assay; settings: Homo sapiens
# [4] = system: Kinesin-1 heavy chain/ Tyrosine-protein kinase receptor RET (Homo sapiens), P07949+P33176 [V804M]; assay: Inhibition of KIF5B-RET V804M mutant fusion protein (unknown origin) expressed in mouse BaF3 cells assessed as reduction in cell proliferation measured after 48 hrs by MTS assay
# [5] = Cytotoxicity against mouse BaF3 cells assessed as reduction in cell proliferation measured after 48 hrs by MTS assay
# [6] = molecular target: T1, Coiled-coil domain-containing protein 6/Tyrosine-protein kinase receptor RET (Homo sapiens); assay: Inhibition of CCDC6-RET fusion protein (unknown origin) expressed in mouse BaF3 cells assessed as cell survival at 2 uM measured after 48 hrs by MTS assay relative to control
# [7] = molecular target: T2, Kinesin-1 heavy chain/ Tyrosine-protein kinase receptor RET (Homo sapiens); assay: Inhibition of KIF5B-RET fusion protein (unknown origin) expressed in mouse BaF3 cells assessed as cell survival at 2 uM measured after 48 hrs by MTS assay relative to control
# T2 sequence (P07949 29-1114 limits assumed): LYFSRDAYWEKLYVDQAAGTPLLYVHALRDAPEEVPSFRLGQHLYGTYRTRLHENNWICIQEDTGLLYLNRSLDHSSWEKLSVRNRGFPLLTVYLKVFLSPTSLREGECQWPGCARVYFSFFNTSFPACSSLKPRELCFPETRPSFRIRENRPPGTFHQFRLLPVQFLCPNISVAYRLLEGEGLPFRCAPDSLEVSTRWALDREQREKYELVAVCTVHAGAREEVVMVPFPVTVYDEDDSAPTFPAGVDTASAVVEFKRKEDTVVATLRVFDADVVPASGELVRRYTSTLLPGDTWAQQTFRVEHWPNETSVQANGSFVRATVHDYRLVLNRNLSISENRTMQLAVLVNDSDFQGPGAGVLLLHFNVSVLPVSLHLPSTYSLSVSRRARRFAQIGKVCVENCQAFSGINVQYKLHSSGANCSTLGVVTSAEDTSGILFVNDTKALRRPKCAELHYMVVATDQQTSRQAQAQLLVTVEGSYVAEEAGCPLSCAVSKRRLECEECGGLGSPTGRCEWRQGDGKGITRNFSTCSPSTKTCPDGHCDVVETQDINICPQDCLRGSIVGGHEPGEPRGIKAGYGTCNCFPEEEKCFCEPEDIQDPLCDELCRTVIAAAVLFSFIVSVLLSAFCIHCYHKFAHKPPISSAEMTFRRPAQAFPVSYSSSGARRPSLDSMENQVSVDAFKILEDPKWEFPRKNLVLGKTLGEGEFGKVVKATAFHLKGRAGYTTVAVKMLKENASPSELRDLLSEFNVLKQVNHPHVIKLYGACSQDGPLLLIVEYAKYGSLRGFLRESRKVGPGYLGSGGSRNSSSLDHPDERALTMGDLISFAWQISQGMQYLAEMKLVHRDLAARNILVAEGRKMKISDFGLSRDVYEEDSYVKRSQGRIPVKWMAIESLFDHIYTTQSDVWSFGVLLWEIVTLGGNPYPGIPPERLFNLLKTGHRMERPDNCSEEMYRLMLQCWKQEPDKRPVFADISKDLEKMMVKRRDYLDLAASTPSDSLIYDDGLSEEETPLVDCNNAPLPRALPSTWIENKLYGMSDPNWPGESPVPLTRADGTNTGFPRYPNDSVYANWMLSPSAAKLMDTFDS
# T2 sequence (P33176 2-963 partner limits assumed): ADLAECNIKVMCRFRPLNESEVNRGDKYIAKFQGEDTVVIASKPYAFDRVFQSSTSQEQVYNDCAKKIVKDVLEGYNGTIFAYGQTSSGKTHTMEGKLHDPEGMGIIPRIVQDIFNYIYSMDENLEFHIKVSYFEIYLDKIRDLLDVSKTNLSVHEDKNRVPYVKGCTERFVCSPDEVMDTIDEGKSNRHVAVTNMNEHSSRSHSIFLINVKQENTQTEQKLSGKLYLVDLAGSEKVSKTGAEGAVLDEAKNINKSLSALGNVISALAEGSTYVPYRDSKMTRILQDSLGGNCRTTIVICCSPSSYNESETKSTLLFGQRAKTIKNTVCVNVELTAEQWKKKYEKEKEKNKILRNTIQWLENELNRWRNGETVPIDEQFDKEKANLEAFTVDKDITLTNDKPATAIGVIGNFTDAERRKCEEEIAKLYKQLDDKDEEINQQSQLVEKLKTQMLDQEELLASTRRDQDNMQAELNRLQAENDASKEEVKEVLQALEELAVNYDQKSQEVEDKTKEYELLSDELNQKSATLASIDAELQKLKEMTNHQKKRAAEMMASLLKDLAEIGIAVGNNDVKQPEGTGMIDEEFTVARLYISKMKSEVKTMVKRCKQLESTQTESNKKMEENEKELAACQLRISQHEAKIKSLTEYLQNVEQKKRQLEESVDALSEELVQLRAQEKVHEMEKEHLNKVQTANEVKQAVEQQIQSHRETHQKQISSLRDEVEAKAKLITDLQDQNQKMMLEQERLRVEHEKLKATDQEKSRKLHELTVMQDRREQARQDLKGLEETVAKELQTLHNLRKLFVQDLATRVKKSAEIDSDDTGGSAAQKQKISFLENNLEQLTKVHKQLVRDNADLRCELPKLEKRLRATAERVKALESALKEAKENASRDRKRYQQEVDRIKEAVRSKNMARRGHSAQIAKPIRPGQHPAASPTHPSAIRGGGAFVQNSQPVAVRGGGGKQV
# T1 sequence (P07949 29-1114 limits assumed): as the sequence (P07949 29-1114 limits assumed) above
# T1 sequence (Q16204 2-474 partner limits assumed): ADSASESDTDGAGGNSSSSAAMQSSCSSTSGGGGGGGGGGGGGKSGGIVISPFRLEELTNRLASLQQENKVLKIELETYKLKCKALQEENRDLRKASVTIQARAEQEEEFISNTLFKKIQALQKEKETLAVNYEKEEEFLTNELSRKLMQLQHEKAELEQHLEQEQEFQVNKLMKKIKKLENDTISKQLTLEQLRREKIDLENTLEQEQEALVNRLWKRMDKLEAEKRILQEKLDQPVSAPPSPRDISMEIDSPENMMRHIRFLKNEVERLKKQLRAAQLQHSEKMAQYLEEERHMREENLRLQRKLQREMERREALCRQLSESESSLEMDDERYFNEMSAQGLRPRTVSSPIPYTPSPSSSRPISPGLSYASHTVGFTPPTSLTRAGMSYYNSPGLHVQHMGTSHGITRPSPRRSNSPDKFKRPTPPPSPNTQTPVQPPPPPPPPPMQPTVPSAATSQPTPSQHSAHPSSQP
GI50 [1],GI50 [2],GI50 [3],GI50 [4],Structure (SMILES),GI50 at 48 h [5],Survival [6],Survival [7]
39 nM,36 nM,220 nM,90 nM,Cc1ccc(C(=O)Nc2ccc(CN3CCN(C)CC3)c(C(F)(F)F)c2)cc1Oc1nc(-c2ccncc2)nc2c1cnn2C,2620 nM,,
807 nM,320 nM,,,Cc1ccc(C(=O)Nc2ccc(CN3CCN(C)CC3)c(C(F)(F)F)c2)cc1Oc1nc(-c2cccc(Cl)c2)nc2c1cnn2C,,,
73 nM,240 nM,,,Cc1ccc(C(=O)Nc2ccc(CN3CCN(C)CC3)c(C(F)(F)F)c2)cc1Oc1nc(-c2ccncc2)nc2[nH]ncc12,,,
4170 nM,4020 nM,,,CN1CCN(Cc2ccc(NC(=O)c3cc(Oc4nc(-c5cccnc5)nc5c4cnn5C)ccc3Cl)cc2C(F)(F)F)CC1,,,
> 10000 nM,> 10000 nM,,,CCn1ncc2c(Oc3cc(C(=O)Nc4ccc(CN5CCN(C)CC5)c(C(F)(F)F)c4)ccc3C)nc(-c3ccncc3)nc21,,,
847 nM,152 nM,,,Cc1ccc(-c2nc(Oc3cc(C(=O)Nc4ccc(CN5CCN(C)CC5)c(C(F)(F)F)c4)ccc3C)c3cnn(C)c3n2)cc1,,,
140 nM,106 nM,,,CN1CCN(Cc2ccc(C(=O)Nc3cccc(Oc4nc(-c5ccncc5)nc5c4cnn5C)c3)cc2C(F)(F)F)CC1,,,
75 nM,14 nM,529 nM,290 nM,Cc1ccc(C(=O)Nc2ccc(CN3CCN(C)CC3)c(C(F)(F)F)c2)cc1Oc1nc(-c2ccoc2)nc2c1cnn2C,> 10000 nM,,
16 nM,114 nM,> 10000 nM,8190 nM,CN1CCN(Cc2ccc(C(=O)Nc3cc(Oc4nc(-c5ccncc5)nc5c4cnn5C)ccc3Cl)cc2C(F)(F)F)CC1,3400 nM,,
178 nM,28 nM,499 nM,274 nM,Cc1ccc(C(=O)Nc2ccc(CN3CCN(C)CC3)c(C(F)(F)F)c2)cc1Oc1nc(-c2cccc(O)c2)nc2c1cnn2C,2640 nM,,
449 nM,36 nM,736 nM,564 nM,Cc1ccc(C(=O)Nc2ccc(CN3CCN(C)CC3)c(C(F)(F)F)c2)cc1Oc1nc(-c2ccsc2)nc2c1cnn2C,5070 nM,,
617 nM,469 nM,,,Cc1ccc(NC(=O)c2ccc(CN3CCN(C)CC3)c(C(F)(F)F)c2)cc1Oc1nc(-c2ccncc2)nc2c1cnn2C,,,
477 nM,411 nM,,,Cc1ccc(NC(=O)c2ccc(CN3CCN(C)CC3)c(C(F)(F)F)c2)cc1Oc1nc(-c2cccnc2)nc2c1cnn2C,,,
1570 nM,2620 nM,,,Cc1cn(-c2cc(NC(=O)c3ccc(C)c(Oc4nc(-c5ccncc5)nc5c4cnn5C)c3)cc(C(F)(F)F)c2)cn1,,,
,,,,CN1CCN(Cc2ccc(NC(=O)c3cccc(Oc4nc(-c5cccnc5)nc5c4cnn5C)c3)cc2C(F)(F)F)CC1,,65.5%,56.5%
1520 nM,440 nM,,,Cc1ccc(Oc2nc(-c3ccncc3)nc3c2cnn3C)cc1C(=O)Nc1ccc(CN2CCN(C)CC2)c(C(F)(F)F)c1,,,
108 nM,130 nM,,,CN1CCN(Cc2ccc(NC(=O)c3cc(Oc4nc(-c5ccncc5)nc5c4cnn5C)ccc3Cl)cc2C(F)(F)F)CC1,,,
,,,,CN1CCN(Cc2ccc(NC(=O)c3cccc(Oc4nc(-c5ccncc5)nc5c4cnn5C)c3)cc2C(F)(F)F)CC1,,94.1%,74.9%
123 nM,70 nM,,,Cc1ccc(C(=O)Nc2ccc(CN3CCN(C)CC3)c(C(F)(F)F)c2)cc1Oc1nc(Nc2ccccc2)nc2c1cnn2C,,,
342 nM,820 nM,,,CN1CCN(Cc2ccc(C(=O)Nc3cccc(Oc4nc(-c5cccnc5)nc5[nH]ncc45)c3)cc2C(F)(F)F)CC1,,,

GI50 [1],GI50 [2],GI50 [3],GI50 [4],Structure (SMILES),GI50 at 48 h [5],Survival [6],Survival [7]
166 nM,57 nM,,,Cc1ccc(C(=O)Nc2ccc(CN3CCN(C)CC3)c(C(F)(F)F)c2)cc1Oc1nc(-c2ccc(O)cc2)nc2c1cnn2C,,,
79 nM,299 nM,,,CN1CCN(Cc2ccc(C(=O)Nc3cccc(Oc4nc(-c5ccncc5)nc5[nH]ncc45)c3)cc2C(F)(F)F)CC1,,,
> 10000 nM,> 10000 nM,,,Cc1cn(-c2cc(NC(=O)c3ccc(C)c(Oc4nc(-c5cccnc5)nc5c4cnn5C)c3)cc(C(F)(F)F)c2)cn1,,,
2370 nM,3890 nM,,,Cc1ccc(Oc2nc(-c3cccnc3)nc3[nH]ncc23)cc1NC(=O)c1ccc(CN2CCN(C)CC2)c(C(F)(F)F)c1,,,
264 nM,482 nM,,,Cc1ccc(C(=O)Nc2cc(CN3CCN(C)CC3)cc(C(F)(F)F)c2)cc1Oc1nc(-c2cccnc2)nc2c1cnn2C,,,
567 nM,1350 nM,,,CN1CCN(Cc2ccc(C(=O)Nc3cc(Oc4nc(-c5cccnc5)nc5[nH]ncc45)ccc3Cl)cc2C(F)(F)F)CC1,,,
348 nM,98 nM,,,Cc1ccc(C(=O)Nc2ccc(CN3CCN(C)CC3)c(C(F)(F)F)c2)cc1Oc1nc(-c2ccccc2)nc2c1cnn2C,,,
,,,,Cc1ccc(Oc2nc(-c3cccnc3)nc3c2cnn3C)cc1C(=O)Nc1ccc(CN2CCN(C)CC2)c(C(F)(F)F)c1,,100%,87.5%
29 nM,,1000 nM,1210 nM,COc1cc2nccc(Oc3ccc(NC(=O)C4(C(=O)Nc5ccc(F)cc5)CC4)cc3)c2cc1OC [CABOZANTINIB],7910 nM,,
13 nM,6 nM,4870 nM,4210 nM,Cc1ccc(Oc2nc(-c3ccncc3)nc3c2cnn3C)cc1NC(=O)c1ccc(CN2CCN(C)CC2)c(C(F)(F)F)c1,2780 nM,,
< 4 nM,< 4 nM,< 4 nM,< 4 nM,CO[C@]1(C(=O)N[C@@H](C)c2ccc(-n3cc(F)cn3)nc2)CC[C@H](c2nc(C)cc(Nc3cc(C)[nH]n3)n2)CC1 [PRALSETINIB],1270 nM,,
696 nM,114 nM,,,Cc1ccc(C(=O)Nc2ccc(CN3CCN(C)CC3)c(C(F)(F)F)c2)cc1Oc1nc(-c2ccc(Cl)cc2)nc2c1cnn2C,,,
4 nM,4 nM,1890 nM,757 nM,Cc1ccc(Oc2nc(-c3ccncc3)nc3[nH]ncc23)cc1NC(=O)c1ccc(CN2CCN(C)CC2)c(C(F)(F)F)c1,3450 nM,,
1970 nM,2240 nM,,,Cc1ccc(C(=O)Nc2cccc(C(F)(F)F)c2)cc1Oc1nc(-c2cccnc2)nc2c1cnn2C,,,
2070 nM,1390 nM,,,CN1CCN(Cc2ccc(C(=O)Nc3cc(Oc4nc(-c5cccnc5)nc5c4cnn5C)ccc3Cl)cc2C(F)(F)F)CC1,,,
13 nM,22 nM,7380 nM,6520 nM,CN1CCN(Cc2ccc(C(=O)Nc3cc(Oc4nc(-c5ccncc5)nc5[nH]ncc45)ccc3Cl)cc2C(F)(F)F)CC1,1010 nM,,
1110 nM,953 nM,,,CN1CCN(Cc2ccc(C(=O)Nc3cccc(Oc4nc(-c5cccnc5)nc5c4cnn5C)c3)cc2C(F)(F)F)CC1,,,
1100 nM,915 nM,,,Cc1ccc(C(=O)Nc2ccc(CN3CCN(C)CC3)c(C(F)(F)F)c2)cc1Oc1nc(-c2ccncc2)nc2c1cnn2C(C)C,,,
39 nM,35 nM,136 nM,113 nM,Cc1ccc(C(=O)Nc2ccc(CN3CCN(C)CC3)c(C(F)(F)F)c2)cc1Oc1nc(-c2cccnc2)nc2c1cnn2C,1290 nM,,
4170 nM,4420 nM,,,Cc1ccc(Oc2nc(-c3cccnc3)nc3c2cnn3C)cc1NC(=O)c1ccc(CN2CCN(C)CC2)c(C(F)(F)F)c1,,,
